Test results published in ChEMBL document CHEMBL1201862, “PubChem BioAssay data set” (2004).
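Five concentrations, 48 hours, 96-well plates. Abbreviation: GI50, concentration required for 50% inhibition of growth.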 Active and inactive are the calls of the source. No stated cut-off is given here; in the data, active = GI50 up to about 1.1 µM and inactive = higher.

Assays:
Test in all cases: NCI anticancer screen, dose series, 48 h
786-0 = test system: 786-0
A498 = test system: A498
A549 = test system: A549
ACHN = test system: ACHN
CAKI-1 = test system: CAKI-1
CCRF-CEM = test system: CCRF-CEM
COLO 205 = test system: COLO 205
DU-145 = test system: DU-145
EKVX = test system: EKVX
HCC 2998 = test system: HCC 2998
HCT-116 = test system: HCT-116
HL-60 = test system: HL-60
HOP-62 = test system: HOP-62
HOP-92 = test system: HOP-92
HT-29 = test system: HT-29
Hs-578T = test system: Hs-578T
IGROV-1 = test system: IGROV-1
K562 = test system: K562
KM12 = test system: KM12
LOX IMVI = test system: LOX IMVI
M14 = test system: M14
MCF7 = test system: MCF7
MDA-MB-231 = test system: MDA-MB-231
MDA-MB-435 = test system: MDA-MB-435
MDA-N = test system: MDA-N
MOLT-4 = test system: MOLT-4
Malme-3M = test system: Malme-3M
NCI-H226 = test system: NCI-H226
NCI-H23 = test system: NCI-H23
NCI-H460 = test system: NCI-H460
NCI-H522 = test system: NCI-H522
NCI/ADR-RES = test system: NCI/ADR-RES
OVCAR-3 = test system: OVCAR-3
OVCAR-4 = test system: OVCAR-4
OVCAR-5 = test system: OVCAR-5
OVCAR-8 = test system: OVCAR-8
PC-3 = test system: PC-3
RPMI-8226 = test system: RPMI-8226
RXF 393 = test system: RXF 393
SF-268 = test system: SF-268
SF-295 = test system: SF-295
SF-539 = test system: SF-539
SK-MEL-28 = test system: SK-MEL-28
SK-MEL-2 = test system: SK-MEL-2
SK-MEL-5 = test system: SK-MEL-5
SK-OV-3 = test system: SK-OV-3
SN12C = test system: SN12C
SNB-19 = test system: SNB-19
SNB-75 = test system: SNB-75
SR = test system: SR
SW-620 = test system: SW-620
T47D = test system: T47D
TK-10 = test system: TK-10
U-251 = test system: U-251
UACC-257 = test system: UACC-257
UACC-62 = test system: UACC-62
UO-31 = test system: UO-31
BT-549 = test system: BT-549
HCT-15 = test system: HCT-15

Cn1c(=O)c2ccccc2[n+]2c(-c3cccc([N+](=O)[O-])c3)csc12
GI50 (786-0): 54.3 µM (inactive)
GI50 (A498): 58.9 µM (inactive)
GI50 (A549): 91.4 µM (inactive)
GI50 (ACHN): > 100 µM (inactive)
GI50 (CAKI-1): 73.5 µM (inactive)
GI50 (CCRF-CEM): 32.6 µM (inactive)
GI50 (COLO 205): > 100 µM (inactive)
GI50 (DU-145): > 100 µM (inactive)
GI50 (EKVX): 25.2 µM (inactive)
GI50 (HCC 2998): > 100 µM (inactive)
GI50 (HCT-116): 67.5 µM (inactive)
GI50 (HL-60): 23 µM (inactive)
GI50 (HOP-62): 21.2 µM (inactive)
GI50 (HOP-92): > 100 µM (inactive)
GI50 (HT-29): 41.3 µM (inactive)
GI50 (Hs-578T): 18.7 µM (inactive)
GI50 (IGROV-1): 68.1 µM (inactive)
GI50 (K562): 36.7 µM (inactive)
GI50 (KM12): 58.2 µM (inactive)
GI50 (LOX IMVI): > 100 µM (inactive)
GI50 (M14): > 100 µM (inactive)
GI50 (MCF7): 32.6 µM (inactive)
GI50 (MDA-MB-231): 30.8 µM (inactive)
GI50 (MDA-MB-435): 63.7 µM (inactive)
GI50 (MDA-N): 76.6 µM (inactive)
GI50 (MOLT-4): 24.2 µM (inactive)
GI50 (Malme-3M): > 100 µM (inactive)
GI50 (NCI-H226): > 100 µM (inactive)
GI50 (NCI-H23): > 100 µM (inactive)
GI50 (NCI-H460): 36.7 µM (inactive)
GI50 (NCI-H522): 38 µM (inactive)
GI50 (NCI/ADR-RES): 9.51 µM (inactive)
GI50 (OVCAR-3): 39.4 µM (inactive)
GI50 (OVCAR-4): > 100 µM (inactive)
GI50 (OVCAR-5): > 100 µM (inactive)
GI50 (OVCAR-8): 18 µM (inactive)
GI50 (PC-3): 50.5 µM (inactive)
GI50 (RPMI-8226): 28.1 µM (inactive)
GI50 (RXF 393): 43.4 µM (inactive)
GI50 (SF-268): 26.5 µM (inactive)
GI50 (SF-295): 44.8 µM (inactive)
GI50 (SF-539): 59.6 µM (inactive)
GI50 (SK-MEL-28): > 100 µM (inactive)
GI50 (SK-MEL-2): 36.4 µM (inactive)
GI50 (SK-MEL-5): 59.7 µM (inactive)
GI50 (SK-OV-3): 73.6 µM (inactive)
GI50 (SN12C): > 100 µM (inactive)
GI50 (SNB-19): > 100 µM (inactive)
GI50 (SNB-75): 12.9 µM (inactive)
GI50 (SR): 18.6 µM (inactive)
GI50 (SW-620): > 100 µM (inactive)
GI50 (T47D): > 100 µM (inactive)
GI50 (TK-10): 36.4 µM (inactive)
GI50 (U-251): 32.6 µM (inactive)
GI50 (UACC-257): > 100 µM (inactive)
GI50 (UACC-62): 70.3 µM (inactive)
GI50 (UO-31): > 100 µM (inactive)

O=C(NCCN1CCOCC1)c1ccc2cc(C(=O)N3CC(CCl)c4ccc([N+](=O)[O-])cc43)[nH]c2c1 (stereo not drawn)
GI50 (786-0): 4.41 µM (inactive)
GI50 (A498): 7.03 µM (inactive)
GI50 (A549): 5.19 µM (inactive)
GI50 (ACHN): 12.4 µM (inactive)
GI50 (BT-549): 16.9 µM (inactive)
GI50 (CAKI-1): 24.2 µM (inactive)
GI50 (CCRF-CEM): 7.82 µM (inactive)
GI50 (COLO 205): 25 µM (inactive)
GI50 (DU-145): 17.5 µM (inactive)
GI50 (EKVX): 16.6 µM (inactive)
GI50 (HCC 2998): 15 µM (inactive)
GI50 (HCT-116): 13.5 µM (inactive)
GI50 (HCT-15): 19.1 µM
GI50 (HL-60): 6.14 µM (inactive)
GI50 (HOP-62): 17.1 µM (inactive)
GI50 (HOP-92): 8.24 µM (inactive)
GI50 (HT-29): 5.14 µM (inactive)
GI50 (Hs-578T): 4.83 µM (inactive)
GI50 (IGROV-1): 11.5 µM (inactive)
GI50 (K562): 19.4 µM (inactive)
GI50 (KM12): 23.1 µM (inactive)
GI50 (LOX IMVI): 2.63 µM (inactive)
GI50 (M14): 7.38 µM (inactive)
GI50 (MCF7): 17.5 µM (inactive)
GI50 (MDA-MB-231): 15.5 µM (inactive)
GI50 (MDA-MB-435): 15.5 µM (inactive)
GI50 (MOLT-4): 6.52 µM (inactive)
GI50 (NCI-H226): 27.3 µM (inactive)
GI50 (NCI-H23): 43.6 µM (inactive)
GI50 (NCI-H460): 11.4 µM (inactive)
GI50 (NCI-H522): 4.67 µM (inactive)
GI50 (NCI/ADR-RES): > 100 µM (inactive)
GI50 (OVCAR-3): 16.9 µM (inactive)
GI50 (OVCAR-4): 8.77 µM (inactive)
GI50 (OVCAR-5): > 100 µM (inactive)
GI50 (OVCAR-8): 12.1 µM (inactive)
GI50 (PC-3): 15 µM (inactive)
GI50 (RPMI-8226): 2.43 µM (inactive)
GI50 (RXF 393): 5.01 µM (inactive)
GI50 (SF-268): 9.84 µM (inactive)
GI50 (SF-295): 3.18 µM (inactive)
GI50 (SF-539): 60.4 µM (inactive)
GI50 (SK-MEL-28): 6.62 µM (inactive)
GI50 (SK-MEL-2): 16 µM (inactive)
GI50 (SK-MEL-5): 2.54 µM (inactive)
GI50 (SK-OV-3): 16.1 µM (inactive)
GI50 (SN12C): 19.2 µM (inactive)
GI50 (SNB-19): 12 µM (inactive)
GI50 (SNB-75): 6.7 µM (inactive)
GI50 (SW-620): 20.1 µM (inactive)
GI50 (T47D): 26.2 µM (inactive)
GI50 (TK-10): 16.9 µM (inactive)
GI50 (U-251): 9.66 µM (inactive)
GI50 (UACC-257): 25 µM (inactive)
GI50 (UACC-62): 11.9 µM (inactive)
GI50 (UO-31): 43.4 µM (inactive)
